Source: ChEMBL document CHEMBL5241057, “Outline of gelatinase inhibitors as anti-cancer agents: A patent mini-review for 2010-present” (Eur J Med Chem, 2021)
Each block holds one molecule with its values, some of them ahead of it. Where a SMILES comes first, the peptide text is derived from it. [ ]: non-standard residue; d: D form. The star is where a group is joined. ξ: configuration not given here. Pro(trans-4-F) = O=C(O)[C@@H]1C[C@@H](F)CN1; NMeIle(3ξ) = CCC(C)[C@H](NC)C(=O)O; Dab = NCC[C@H](N)C(=O)O; Hexanoyl = CCCCCC(=O)*; Bz = O=C(c1ccccc1)*; NHOH = ON*

Legend:
[1] = biological target: T1, 72 kDa type IV collagenase (Homo sapiens, UniProt P08253); test: Inhibition of MMP2 (unknown origin) assessed as inhibition constant
[2] = biological target: T2, Matrix metalloproteinase-9 (Homo sapiens, UniProt P14780); test: Inhibition of MMP9 (unknown origin) assessed as inhibition constant
[3] = biological target: T1, 72 kDa type IV collagenase; test: Inhibition of MMP2 (unknown origin)
[4] = biological target: T2, Matrix metalloproteinase-9; test: Inhibition of MMP9 (unknown origin)
[5] = biological target: T3, Matrilysin (Homo sapiens, UniProt P09237); test: Inhibition of MMP7 (unknown origin) assessed as inhibition constant
T3 sequence (P09237 whole entry): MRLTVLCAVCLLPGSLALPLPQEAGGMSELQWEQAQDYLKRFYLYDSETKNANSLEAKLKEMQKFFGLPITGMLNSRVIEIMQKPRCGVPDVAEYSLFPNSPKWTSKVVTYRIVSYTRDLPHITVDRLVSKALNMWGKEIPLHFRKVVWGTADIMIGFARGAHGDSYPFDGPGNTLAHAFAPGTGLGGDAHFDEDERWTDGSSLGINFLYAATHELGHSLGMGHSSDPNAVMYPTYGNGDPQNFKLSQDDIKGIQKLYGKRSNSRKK

[6] = system: B16-BL6; test: Antimetastatic activity in mouse implanted with mouse B16-BL6 cells assessed as inhibition of lung metastasis at 2.5 mg/kg relative to control; type: functional; parameters: scale not given: the % may be the effect or the level left
[7] = system: B16-BL6; test: Antimetastatic activity in mouse implanted with mouse B16-BL6 cells assessed as inhibition of lung metastasis at 5 mg/kg relative to control; type: functional; parameters: scale not given: the % may be the effect or the level left
[8] = system: B16-BL6; test: Antimetastatic activity in mouse implanted with mouse B16-BL6 cells assessed as inhibition of lung metastasis at 7.5 mg/kg relative to control; type: functional; parameters: scale not given: the % may be the effect or the level left
[9] = biological target: Macrophage metalloelastase (Homo sapiens, UniProt P39900); test: Inhibition of MMP12 (unknown origin)
[10] = biological target: T2, Matrix metalloproteinase-9; test: Inhibition of MMP9 (unknown origin) assessed as dissociation constant
[11] = biological target: Neutrophil collagenase (Homo sapiens, UniProt P22894); test: Inhibition of MMP8 (unknown origin)
[12] = biological target: T3, Matrilysin; test: Inhibition of MMP7 (unknown origin)
[13] = biological target: Matrix metalloproteinase-14 (Homo sapiens, UniProt P50281); test: Inhibition of MMP14 (unknown origin)

T1 sequence (P08253 whole entry): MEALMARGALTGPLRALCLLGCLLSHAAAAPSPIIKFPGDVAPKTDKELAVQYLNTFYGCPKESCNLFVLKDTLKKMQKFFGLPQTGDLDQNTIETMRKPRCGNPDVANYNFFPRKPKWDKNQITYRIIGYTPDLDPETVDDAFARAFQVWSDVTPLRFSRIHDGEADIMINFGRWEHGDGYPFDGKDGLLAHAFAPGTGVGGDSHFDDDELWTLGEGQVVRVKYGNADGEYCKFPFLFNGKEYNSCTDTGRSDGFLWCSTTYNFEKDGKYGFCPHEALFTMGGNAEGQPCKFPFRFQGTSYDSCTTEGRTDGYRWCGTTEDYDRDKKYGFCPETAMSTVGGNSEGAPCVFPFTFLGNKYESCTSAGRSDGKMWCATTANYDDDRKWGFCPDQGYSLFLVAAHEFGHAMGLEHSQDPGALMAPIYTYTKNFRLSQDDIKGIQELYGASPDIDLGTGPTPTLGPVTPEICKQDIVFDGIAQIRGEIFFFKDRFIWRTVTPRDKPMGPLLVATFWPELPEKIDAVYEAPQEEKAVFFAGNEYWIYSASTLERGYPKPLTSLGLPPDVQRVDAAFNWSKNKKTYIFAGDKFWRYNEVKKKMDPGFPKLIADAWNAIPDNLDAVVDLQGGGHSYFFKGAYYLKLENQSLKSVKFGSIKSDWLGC
T2 sequence (P14780 whole entry): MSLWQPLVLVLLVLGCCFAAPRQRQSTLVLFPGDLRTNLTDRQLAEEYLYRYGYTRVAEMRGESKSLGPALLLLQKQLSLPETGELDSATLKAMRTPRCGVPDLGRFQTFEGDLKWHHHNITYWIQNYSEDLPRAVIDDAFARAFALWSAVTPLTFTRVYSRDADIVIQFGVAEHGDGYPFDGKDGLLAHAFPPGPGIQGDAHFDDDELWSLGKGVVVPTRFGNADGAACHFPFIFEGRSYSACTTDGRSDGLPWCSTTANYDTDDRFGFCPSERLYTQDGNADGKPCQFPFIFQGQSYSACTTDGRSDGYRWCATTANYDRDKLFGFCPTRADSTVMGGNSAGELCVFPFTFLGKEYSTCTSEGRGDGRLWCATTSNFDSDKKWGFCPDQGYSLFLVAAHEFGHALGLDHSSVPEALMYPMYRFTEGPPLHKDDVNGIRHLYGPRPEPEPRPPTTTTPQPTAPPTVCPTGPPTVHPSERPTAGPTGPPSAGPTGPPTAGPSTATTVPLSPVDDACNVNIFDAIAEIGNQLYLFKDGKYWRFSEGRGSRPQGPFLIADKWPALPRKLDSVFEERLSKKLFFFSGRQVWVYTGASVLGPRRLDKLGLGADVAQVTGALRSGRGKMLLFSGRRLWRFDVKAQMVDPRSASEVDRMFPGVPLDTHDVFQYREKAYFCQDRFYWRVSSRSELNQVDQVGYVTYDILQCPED
Sequence of Macrophage metalloelastase (P39900 whole entry): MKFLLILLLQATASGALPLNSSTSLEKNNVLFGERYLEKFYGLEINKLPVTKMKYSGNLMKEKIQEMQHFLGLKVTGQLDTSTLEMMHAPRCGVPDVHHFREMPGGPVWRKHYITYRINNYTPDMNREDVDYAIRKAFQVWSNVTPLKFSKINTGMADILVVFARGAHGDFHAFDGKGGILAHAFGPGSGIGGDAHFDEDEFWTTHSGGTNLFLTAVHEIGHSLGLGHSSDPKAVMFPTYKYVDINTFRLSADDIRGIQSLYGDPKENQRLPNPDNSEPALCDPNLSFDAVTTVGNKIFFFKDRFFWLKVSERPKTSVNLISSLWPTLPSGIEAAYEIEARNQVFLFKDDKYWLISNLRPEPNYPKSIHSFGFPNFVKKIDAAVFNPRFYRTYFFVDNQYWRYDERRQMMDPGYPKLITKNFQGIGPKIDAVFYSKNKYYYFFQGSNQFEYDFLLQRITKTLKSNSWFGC
Sequence of Neutrophil collagenase (P22894 whole entry): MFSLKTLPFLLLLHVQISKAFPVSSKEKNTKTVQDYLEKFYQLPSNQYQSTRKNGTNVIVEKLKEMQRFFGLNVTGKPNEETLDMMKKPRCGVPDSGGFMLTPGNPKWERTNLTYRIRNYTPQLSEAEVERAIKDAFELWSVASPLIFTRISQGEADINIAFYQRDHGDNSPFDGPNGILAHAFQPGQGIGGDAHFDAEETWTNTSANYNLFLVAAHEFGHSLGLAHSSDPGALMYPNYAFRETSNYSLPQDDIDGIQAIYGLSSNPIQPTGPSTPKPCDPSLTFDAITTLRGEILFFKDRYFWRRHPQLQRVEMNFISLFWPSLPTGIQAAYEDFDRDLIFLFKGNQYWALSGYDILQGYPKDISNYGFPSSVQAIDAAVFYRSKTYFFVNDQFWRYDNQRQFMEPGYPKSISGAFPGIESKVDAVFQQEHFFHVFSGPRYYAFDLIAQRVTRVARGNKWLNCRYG

Compound: CN([C@H]1CN(C(N)=O)C[C@@H]1S)S(=O)(=O)c1ccc(Oc2ccccc2)cc1
IC50 [1]: 2.3 nM
IC50 [2]: 1.3 nM

Compound: NCCCCCC(=O)N1C[C@H](NS(=O)(=O)c2ccc(Oc3ccccc3)cc2)[C@@H](S)C1
IC50 [1]: 2.2 nM
IC50 [2]: 2.3 nM

Compound: NCc1ccc(Oc2ccc(S(=O)(=O)CC3CS3)cc2)cc1 (centres undefined)
IC50 [3]: 85 nM

Compound: CS(=O)(=O)Nc1ccc(Oc2ccc(S(=O)(=O)CC3CS3)cc2)cc1 (centres undefined)
IC50 [2]: 80 nM

Compound: CC(=O)NCc1ccc(Oc2ccc(S(=O)(=O)CC3CS3)cc2)cc1 (centres undefined)
IC50 [3]: 234 nM

IC50 [3]: 0.23 nM
Compound: O=C(NO)C1(S(=O)(=O)c2ccc(-n3cc(-c4ccc(-c5ccncc5)cc4)nn3)cc2)CCOCC1

IC50 [3]: 0.22 nM
IC50 [4]: 1 nM
Ki [5]: 116000 nM
Compound: CN(C)c1ccc(-c2cn(-c3ccc(S(=O)(=O)NC(Cc4ccccc4)C(=O)NO)cc3)nn2)cc1 (centres undefined)

IC50 [3]: 6230 nM
IC50 [4]: 7050 nM
Compound: C[C@@H]1O[C@@H](O[C@H]2[C@H](O[C@H]3CC[C@@]4(C)C(CC[C@]5(C)C4CC=C4C6CC(C)(C)CC[C@]6(C(=O)O)CC[C@]45C)[C@]3(C)COC(=O)[C@]3(O)C[C@@H](O)[C@@H](O)[C@H](OC(=O)/C=C/c4ccc(O)c(O)c4)C3)OC[C@H](O)[C@@H]2O)[C@H](O)[C@H](O)[C@H]1O (some centres undefined)
Activity [6]: 43.5%
Activity [7]: 52.9%
Activity [8]: 75.2%

IC50 [3]: 0.065 nM
IC50 [4]: 0.29 nM
IC50 [9]: 0.566 nM
Compound: CCc1ccc(-c2cc(-c3ccc(S(=O)(=O)N[C@H](C(=O)O)C(C)C)cc3)no2)s1

IC50 [3]: 2010 nM
Compound: Cc1nc2ccccc2n(CC(=O)NN/C=C\c2cccc([N+](=O)[O-])c2)c1=O

IC50 [3]: 53 nM
Compound: NS(=O)(=O)c1cc(C(=O)c2ccc3c(-c4ccccc4)c[nH]c3c2)ccc1Cl

IC50 [3]: 10500 nM
Compound: Cc1ccc(NCC(=O)[C@@H](Cc2ccccc2)NC(=O)Cn2c(=O)c(C)nc3ccccc32)cc1

Compound: COC(=O)Cc1ccc(Oc2ccc(S(=O)(=O)CC3CS3)cc2)cc1 (centres undefined)
Ki [2]: 180 nM

IC50 [10]: 300 nM
Compound: O=C(CCCSc1nc(=O)c2ccccc2[nH]1)Nc1nc2ccccc2[nH]1

IC50 [4]: < 100 nM
Compound: CC(C)c1noc([C@@H](NC(=O)[C@H](CC2CCCC2)[C@H](O)C(=O)NO)C(C)(C)C)n1

Compound: NCc1nc(-c2ccc(Oc3ccc(S(=O)(=O)CC4CS4)cc3)cc2)no1 (centres undefined)
IC50 [3]: 630 nM

IC50 [3]: 0.0449 nM
IC50 [4]: 0.34 nM
IC50 [11]: 0.567 nM
IC50 [9]: 0.368 nM
Compound: Cc1ccc(-c2cc(-c3ccc(S(=O)(=O)N[C@H](C(=O)O)C(C)C)cc3)no2)s1

IC50 [3]: < 1 nM
Compound: CCCCCC(=O)N1C[C@H](F)C[C@H]1C(=O)N(C)[C@H](C(=O)N[C@@H](CCNC(=O)c1ccccc1)C(=O)NO)C(C)CC (stereo partly drawn) (Hexanoyl-[Pro(trans-4-F)]-[NMeIle(3ξ)]-[Dab](Bz)-{NHOH})

IC50 [3]: 3100 nM
IC50 [12]: 320000 nM
IC50 [13]: 350000 nM
Compound: CC(C)=CCc1cc(/C=C/C(=O)O)cc(CC=C(C)C)c1O [ARTEPILLIN]
